Key:
Type in all cases: cell-based
[1] = target: T1, α1G T-type calcium channels (Homo sapiens, UniProt O43497); assay: T-type calcium channel activity using the FDSS6000 (HTS, Fluo-3/AM, KCl-induced intracellular calcium change); settings: percent inhibition at 10 μM, HEK293 cells stably expressing α1G T-type calcium channels and Kir2.1, KCl 75 mM activation; for inhibition at 10 µM: read-out: FDSS (%, 10 μM)
T1 construct: host or cells: HEK293
Experimental: (§1) The novel compounds of the present invention presented as the formula 1 were tested for their antagonistic activities against T-type calcium channels using the methods described below. More specifically, the synthesized compounds were screened as follows: First, as a primary screening, the compounds having 40% or higher of antagonistic activities against T-type calcium channels were selected using the FDSS6000, a high throughput screening (HTS) device. Then, as a secondary screening, the IC50 (effective inhibitory concentration) values were obtained using the electrophysiological methods.
1) Methods for the Measurements of T-Type Calcium Channel Activity Using the FDSS6000
12 to 24 hours prior to the FDSS-based HTS assay, HEK293 cells stably expressing both α1G T-type calcium channels and Kir2.1 channels (α1G cell line: KCTC 10519BP, KRIBB (Korea Research Institute of Bioscience and Biotechnology) (GENE BANK) were seeded onto the 96-well plate coated with poly-L-lysine (0.05 mg/mL) at a density of 4×10^4 cells/well using a cell distributor (Titertek, USA). On the following day, the cells attached onto the 96-well plate were washed three times with a HEPES-buffered solution (150 mM NaCl, 5 mM KCl, 1 mM MgCl2, 2 mM CaCl2, 10 mM HEPES, 10 mM glucose, and pH 7.4) using an automatic 96-well plate washer (BioTek, USA), and then labeled with a fluorescent calcium indicator dye, Fluo-3/AM (5 μM) and 0.001% Pluronic F-127 in a HEPES-buffered solution at room temperature for 1 hour and then washed again with a HEPES-buffered solution twice. 10 minutes prior to the FDSS6000 measurements, the cells was washed with a HEPES-buffered solution containing 10 mM CaCl2 once and the final volume was adjusted.
In addition to the 96-well plates with cells, the two drug plates were prepared: one containing KCl (final concentration of 75 mM) for the activation of T-type calcium channels, and the other containing testing compounds (blocking agents of T-type calcium channels). Since most cell-based HTS devices are provided with a liquid application system for drug injection but not with a liquid absorption system, the KCl solution and the blocking agents for screening were prepared at concentrations five times higher than the final concentrations in the 10 mM CaCl2 HEPES-buffered solution, and then diluted in the cell plate, and the activities were measured. The specific method of the FDSS6000 measurements is as follows: For the FDSS6000 measurements, after the 20-sec baseline recordings, cells were preincubated with drugs for 75 seconds and the change in intracellular calcium concentration induced by KCl was measured. The percent inhibition by a test compound was calculated as integrated values of 340/380 fluorescent ratio of untreated and drug-treated cells. The control drug was 10 μM of Mibefradil®.
In details, cells were selectively exposed to 340 nm and 380 nm light excited by 4 xenon lamps installed in FDSS6000 using a computer-controlled filter wheel. The emitter fluorescence light through a 515 nm long-pass filter was passed by a freezing digital CCD camera mounted on the device. Data were collected every 1.23 seconds, and an average value of 340/380 fluorescent ratio for each well was obtained using a digital fluorescent analyzer. Data acquisition and analysis were performed using a program provided by Hamamatsu Photonics.

[2] = target: T1, α1G T-type calcium channels; assay: T-type calcium channel activity using electrophysiological whole-cell patch-clamp technique; settings: HEK293 cells expressing α1G T-type calcium channels
Experimental: as §1
2) Methods for the Measurements of T-Type Calcium Channel Activity Using an Electrophysiological Whole-Cell Patch-Clamp Technique
HEK293 cells stably expressing T-type calcium channels were cultured in DMEM (Dulbecco's modified Eagle's medium) containing 10% (v/v) fetal bovine serum and 1% penicillin/streptomycin (v/v) in humidified 5% CO2 at 36.5° C. Cells expressing α1GT-type calcium channels were selected using G-418 (0.5 mg/mL) in the culture medium. The culture medium was replaced with a fresh one every 3-4 days, and cells were subcultured every week.
Cells were seeded onto the coverglass coated with poly-L-lysine (0.5 mg/mL) for the measurements of T-type calcium channel activity 2-7 days prior to the recordings. Whole-cell recordings of T-type calcium channel currents were performed using an EPC-9 patch clamp amplifier (HEKA, Germany). Whole-cell currents were recorded using micropipettes with resistance of 3-4 MΩ with the pipette (intracellular) solution containing (in mM): 130 KCl, 11 EGTA, 5 Mg-ATP, and 10 HEPES, pH to 7.4 and with the bath (extracellular) solution containing (in mM): 140 NaCl, 2 CaCl2, and 10 HEPES, pH to 7.4. The inward currents of T-type calcium channels were evoked by the test pulses of −30 mV for 50 ms at a holding potential of −100 mV every 10 seconds.
Each compound was dissolved in dimethylsulfoxide (DMSO) as 10 mM stock solutions and diluted in the bath solution to 10 μM (containing 0.1% DMSO). […] More specifically, each compound was perfused to the bath for about 30-60 seconds, and the inhibition of the inward peak currents by a test compound was calculated as a percent inhibition from which the IC50 values were determined.

[3] = target: T1, α1G T-type calcium channels; assay: as above; settings: percent inhibition of inward peak currents, HEK293 cells expressing α1G, head prints 100 μM

T1 sequence (O43497 whole entry): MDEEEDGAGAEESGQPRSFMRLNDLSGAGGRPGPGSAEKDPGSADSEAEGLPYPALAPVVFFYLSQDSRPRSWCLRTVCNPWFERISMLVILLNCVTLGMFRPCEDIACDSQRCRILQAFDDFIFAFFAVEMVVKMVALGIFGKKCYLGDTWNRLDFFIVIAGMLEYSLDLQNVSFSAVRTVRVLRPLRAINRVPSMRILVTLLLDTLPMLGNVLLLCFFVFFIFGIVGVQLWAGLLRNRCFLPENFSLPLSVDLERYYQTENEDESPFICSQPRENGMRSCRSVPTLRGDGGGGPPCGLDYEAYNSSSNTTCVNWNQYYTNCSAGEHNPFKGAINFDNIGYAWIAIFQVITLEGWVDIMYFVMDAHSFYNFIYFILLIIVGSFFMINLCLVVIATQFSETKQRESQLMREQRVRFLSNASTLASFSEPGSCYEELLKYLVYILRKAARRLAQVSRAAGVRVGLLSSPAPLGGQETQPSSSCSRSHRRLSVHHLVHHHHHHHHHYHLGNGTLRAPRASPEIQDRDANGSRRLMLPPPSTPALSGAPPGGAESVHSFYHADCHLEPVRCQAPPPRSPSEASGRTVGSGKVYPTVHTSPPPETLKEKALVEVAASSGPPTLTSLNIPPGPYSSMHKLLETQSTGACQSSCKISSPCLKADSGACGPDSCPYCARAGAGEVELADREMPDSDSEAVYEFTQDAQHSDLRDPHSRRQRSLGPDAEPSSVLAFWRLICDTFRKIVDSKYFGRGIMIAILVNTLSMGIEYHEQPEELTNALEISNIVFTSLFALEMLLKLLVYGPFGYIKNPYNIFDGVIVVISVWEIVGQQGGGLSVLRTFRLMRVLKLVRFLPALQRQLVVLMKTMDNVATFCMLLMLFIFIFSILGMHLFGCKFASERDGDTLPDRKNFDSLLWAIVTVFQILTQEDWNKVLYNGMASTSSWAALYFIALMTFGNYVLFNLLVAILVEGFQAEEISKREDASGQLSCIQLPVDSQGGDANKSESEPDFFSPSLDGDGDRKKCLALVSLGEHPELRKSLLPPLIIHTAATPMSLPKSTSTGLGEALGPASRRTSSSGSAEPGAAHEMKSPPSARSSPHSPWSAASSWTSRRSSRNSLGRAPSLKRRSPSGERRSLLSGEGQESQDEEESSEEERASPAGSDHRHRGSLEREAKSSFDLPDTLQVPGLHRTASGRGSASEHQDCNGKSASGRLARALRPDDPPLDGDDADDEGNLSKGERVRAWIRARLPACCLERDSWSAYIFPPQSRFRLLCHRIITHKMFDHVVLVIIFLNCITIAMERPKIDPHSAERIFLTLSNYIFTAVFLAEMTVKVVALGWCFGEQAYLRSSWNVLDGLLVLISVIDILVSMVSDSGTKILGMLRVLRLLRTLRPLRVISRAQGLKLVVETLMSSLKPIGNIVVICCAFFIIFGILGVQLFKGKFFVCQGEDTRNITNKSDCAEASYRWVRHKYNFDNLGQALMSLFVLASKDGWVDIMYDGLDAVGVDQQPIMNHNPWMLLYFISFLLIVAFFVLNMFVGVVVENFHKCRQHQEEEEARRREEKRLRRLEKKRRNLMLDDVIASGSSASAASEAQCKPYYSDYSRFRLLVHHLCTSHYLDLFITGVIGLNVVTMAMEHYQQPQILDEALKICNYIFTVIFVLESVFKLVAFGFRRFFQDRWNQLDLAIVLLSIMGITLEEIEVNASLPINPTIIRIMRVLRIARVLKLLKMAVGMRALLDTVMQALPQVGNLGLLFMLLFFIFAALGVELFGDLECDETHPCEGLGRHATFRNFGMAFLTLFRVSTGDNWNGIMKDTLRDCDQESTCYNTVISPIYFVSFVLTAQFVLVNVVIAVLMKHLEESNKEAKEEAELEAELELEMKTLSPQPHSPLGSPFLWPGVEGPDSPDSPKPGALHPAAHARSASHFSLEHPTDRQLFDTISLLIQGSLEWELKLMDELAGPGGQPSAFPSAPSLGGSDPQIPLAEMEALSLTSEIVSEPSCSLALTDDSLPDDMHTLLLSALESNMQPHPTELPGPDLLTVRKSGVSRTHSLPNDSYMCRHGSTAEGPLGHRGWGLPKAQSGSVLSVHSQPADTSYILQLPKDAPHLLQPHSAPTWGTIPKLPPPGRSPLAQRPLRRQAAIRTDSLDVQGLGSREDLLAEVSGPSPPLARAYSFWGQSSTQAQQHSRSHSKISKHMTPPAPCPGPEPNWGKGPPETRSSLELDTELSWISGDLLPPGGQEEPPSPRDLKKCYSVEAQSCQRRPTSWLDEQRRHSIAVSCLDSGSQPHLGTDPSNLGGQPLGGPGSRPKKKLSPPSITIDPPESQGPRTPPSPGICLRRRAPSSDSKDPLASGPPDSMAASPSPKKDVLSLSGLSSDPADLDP

Row | Compound | inhibition at 10 µM [1] [%] | also measured
1 | O=C(CCn1ccnc1-c1ccccc1)NCCN1CCN(C(c2ccccc2)c2ccccc2)CC1 | 60.8 | IC50 [2]: 18 ± 0.92 µM; inhibition at 100 µM [3]: 29.1 ± 1.7%
2 | 1-N-[4-(4-chlorophenyl)(phenyl)methylpiperazin-1-yl]carbonylethyl-2-methylimidazole [Compound No. 46] |  | FDSS (%, 10 μM) [1]: 51.94%; IC50 [2]: 4.97 ± 0.18 µM; HEK293 (%, 100 μM) [3]: 67.6 ± 1.3%
3 | 1-N-{2-[4-(2,3-dimethylphenyl)(phenyl)methylpiperazin-1-yl]ethyl}carbamoylethyl-4-phenylimidazole [Compound No. 56] |  | FDSS (%, 10 μM) [1]: 35.38%
4 | 1-N-{2-[4-(4-chlorophenyl) (phenyl)methylpiperazin-1-yl]ethyl}carbamoylethyl-2-methylimidazole [Compound No. 93] |  | FDSS (%, 10 μM) [1]: 43.04%; IC50 [2]: 9.55 ± 8.7 µM
5 | 1-N-{2-[4-(4-chlorophenyl) (phenyl)methylpiperazin-1-yl]ethyl}carbamoylethyl-4-methylimidazole [Compound No. 94] |  | FDSS (%, 10 μM) [1]: 55.99%; IC50 [2]: 6.77 ± 1.45 µM
6 | O=C(CCn1cnc(-c2ccccc2)c1)N1CCN(Cc2ccccc2)CC1 [Compound No. 2, 1-N-(4-benzylpiperazin-1-yl)carbonylethyl-4-phenylimidazole] | 33.5 | 
7 | Cc1cccc(N2CCN(C(=O)CCn3ccnc3-c3ccccc3)CC2)c1C [Compound No. 15, 1-N-[4-(2,3-dimethylphenyl)piperazin-1-yl]carbonylethyl-2-phenylimidazole] | 34.4 | 
8 | Cc1ccc(N2CCN(C(=O)CCn3ccnc3-c3ccccc3)CC2)c(C)c1 [Compound No. 16, 1-N-[4-(2,4-dimethylphenyl)piperazin-1-yl]carbonylethyl-2-phenylimidazole] | 34.3 | 
9 | O=C(CCn1ccnc1-c1ccccc1)N1CCN(Cc2ccc(F)cc2)CC1 [Compound No. 21, 1-N-[4-(4-fluorobenzyl)piperazin-1-yl]carbonylethyl-2-phenylimidazole] | 36.8 | 
10 | CCN1CCN(C(=O)CCn2ccnc2-c2ccccc2)CC1 [Compound No. 23, 1-N-(4-ethylpiperazin-1-yl)carbonylethyl-2-phenylimidazole] | 23.4 | 
11 | O=C(CCn1ccnc1-c1ccccc1)N1CCN(c2cccc(Cl)c2)CC1 [Compound No. 26, 1-N-[4-(3-chlorophenyl)piperazin-1-yl]carbonylethyl-2-phenylimidazole] | 35.1 | 
12 | COc1ccc(N2CCN(C(=O)CCn3cnc(-c4ccccc4)c3)CC2)cc1 [Compound No. 27, 1-N-[4-(4-methoxyphenyl)piperazin-1-yl]carbonylethyl-4-phenylimidazole] | 37.8 | 
13 | Cc1nccn1CCC(=O)N1CCN(C(c2ccccc2)c2ccccc2)CC1 [Compound No. 35, 1-N-(4-diphenylmethylpiperazin-1-yl)carbonylethyl-2-methylimidazole] | 35 | 
14 | Cc1ccc(N2CCN(C(=O)CCn3cnc(C)c3)CC2)c(C)c1 [Compound No. 38, 1-N-[4-(2,4-dimethylphenyl)piperazin-1-yl]carbonylethyl-4-methylimidazole] | 33.8 | 
15 | O=C(CCn1cnc(-c2ccccc2)c1)N1CCN(c2ccccc2)CC1 [Compound No. 53, 1-N-(4-phenylpiperazin-1-yl)carbonylethyl-4-phenylimidazole] | 42.2 | IC50 [2]: 0.00046 µM
16 | O=C(CCn1ccnc1-c1ccccc1)N1CCN(c2ccccc2)CC1 [Compound No. 54, 1-N-(4-phenylpiperazin-1-yl)carbonylethyl-2-phenylimidazole] | 24.2 | 
17 | Cc1ccc(N2CCN(CCNC(=O)CCn3cnc(-c4ccccc4)c3)CC2)c(C)c1 [Compound No. 61, 1-N-{2-[4-(2,4-dimethylphenyl)piperazin-1-yl]ethyl}carbamoylethyl-4-phenylimidazole] | 44.9 | 
18 | Cc1ccc(N2CCN(CCNC(=O)CCn3ccnc3-c3ccccc3)CC2)c(C)c1 [Compound No. 62, 1-N-{2-[4-(2,4-dimethylphenyl)piperazin-1-yl]ethyl}carbamoylethyl-2-phenylimidazole] | 40.5 | 
19 | Cc1cccc(CN2CCN(CCNC(=O)CCn3cnc(-c4ccccc4)c3)CC2)c1 [Compound No. 67, 1-N-{2-[4-(3-methylbenzyl)piperazin-1-yl]ethyl}carbamoylethyl-4-phenylimidazole] | 39.2 | 
20 | Cc1cccc(CN2CCN(CCNC(=O)CCn3ccnc3-c3ccccc3)CC2)c1 [Compound No. 68, 1-N-{2-[4-(3-methylbenzyl)piperazin-1-yl]ethyl}carbamoylethyl-2-phenylimidazole] | 31.1 | 
21 | O=C(CCn1cnc(-c2ccccc2)c1)NCCN1CCN(Cc2ccc(F)cc2)CC1 [Compound No. 70, 1-N-{2-[4-(4-fluorobenzyl)piperazin-1-yl]ethyl}carbamoylethyl-4-phenylimidazole] | 36.7 | 
22 | O=C(CCn1cnc(-c2ccccc2)c1)NCCN1CCN(c2ccccc2)CC1 [Compound No. 71, 1-N-[2-(4-phenylpiperazin-1-yl)ethyl]carbamoylethyl-4-phenylimidazole] | 30.7 | 
23 | O=C(CCn1cnc(-c2ccccc2)c1)NCCN1CCN(c2ccc(F)cc2)CC1 [Compound No. 73, 1-N-{2-[4-(4-fluorophenyl)piperazin-1-yl]ethyl}carbamoylethyl-4-phenylimidazole] | 41.7 | 
24 | COc1ccc(N2CCN(CCNC(=O)CCn3cnc(-c4ccccc4)c3)CC2)cc1 [Compound No. 75, 1-N-{2-[4-(4-methoxyphenyl)piperazin-1-yl]ethyl}carbamoylethyl-4-phenylimidazole] | 33 | 
25 | O=C(CCn1cnc(-c2ccccc2)c1)NCCN1CCN(c2cccc(Cl)c2)CC1 [Compound No. 79, 1-N-{2-[4-(3-chlorophenyl)piperazin-1-yl]ethyl}carbamoylethyl-4-phenylimidazole] | 36.9 | 
26 | Cc1nccn1CCC(=O)NCCN1CCN(C(c2ccccc2)c2ccccc2)CC1 [Compound No. 96, 1-N-[2-(4-diphenylmethylpiperazin-1-yl)ethyl]carbamoylethyl-2-methylimidazole] | 41.4 | IC50 [2]: 0.39 ± 0.28 µM
27 | COc1ccc(CN2CCN(CCNC(=O)CCn3ccnc3C)CC2)cc1 [Compound No. 98, 1-N-{2-[4-(4-methoxybenzyl)piperazin-1-yl]ethyl}carbamoylethyl-2-methylimidazole] | 33.8 | 

Source: patent US8492384B2 (Korea Institute of Science and Technology, priority 2008, dated 2013)
